# In PubChem BioAssay (NCI):
#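 The compound was tested at five concentrations on cells cultured in 96-well plates, with a 48-hour exposure period. TGI marks complete inhibition of growth.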
# Experiments:
# Test in all cases: NCI-60 cell line screen, 48 h
# 786-0 renal = tested on: 786-0 renal
# A498 renal = tested on: A498 renal
# A549 NSCLC = tested on: A549 NSCLC
# ACHN renal = tested on: ACHN renal
# BT-549 breast = tested on: BT-549 breast
# CAKI-1 renal = tested on: CAKI-1 renal
# CCRF-CEM leukemia = tested on: CCRF-CEM leukemia
# COLO 205 colon = tested on: COLO 205 colon
# DU-145 prostate = tested on: DU-145 prostate
# EKVX NSCLC = tested on: EKVX NSCLC
# HCC-2998 colon = tested on: HCC-2998 colon
# HCT-116 colon = tested on: HCT-116 colon
# HCT-15 colon = tested on: HCT-15 colon
# HL-60(TB) leukemia = tested on: HL-60(TB) leukemia
# HOP-62 NSCLC = tested on: HOP-62 NSCLC
# HOP-92 NSCLC = tested on: HOP-92 NSCLC
# HS 578T breast = tested on: HS 578T breast
# HT29 colon = tested on: HT29 colon
# IGROV1 ovarian = tested on: IGROV1 ovarian
# K-562 leukemia = tested on: K-562 leukemia
# KM12 colon = tested on: KM12 colon
# LOX IMVI melanoma = tested on: LOX IMVI melanoma
# M14 melanoma = tested on: M14 melanoma
# MALME-3M melanoma = tested on: MALME-3M melanoma
# MCF7 breast = tested on: MCF7 breast
# MDA-MB-231 breast = tested on: MDA-MB-231 breast
# MDA-MB-435 = tested on: MDA-MB-435
# MDA-N = tested on: MDA-N
# MOLT-4 leukemia = tested on: MOLT-4 leukemia
# NCI-H226 lung = tested on: NCI-H226 lung
# NCI-H23 lung = tested on: NCI-H23 lung
# NCI-H460 lung = tested on: NCI-H460 lung
# NCI-H522 lung = tested on: NCI-H522 lung
# NCI/ADR-RES ovarian = tested on: NCI/ADR-RES ovarian
# OVCAR-3 ovarian = tested on: OVCAR-3 ovarian
# OVCAR-4 ovarian = tested on: OVCAR-4 ovarian
# OVCAR-5 ovarian = tested on: OVCAR-5 ovarian
# OVCAR-8 ovarian = tested on: OVCAR-8 ovarian
# PC-3 prostate = tested on: PC-3 prostate
# RPMI-8226 leukemia = tested on: RPMI-8226 leukemia
# RXF 393 renal = tested on: RXF 393 renal
# SF-268 CNS = tested on: SF-268 CNS
# SF-295 CNS = tested on: SF-295 CNS
# SF-539 CNS = tested on: SF-539 CNS
# SK-MEL-2 melanoma = tested on: SK-MEL-2 melanoma
# SK-MEL-28 melanoma = tested on: SK-MEL-28 melanoma
# SK-MEL-5 melanoma = tested on: SK-MEL-5 melanoma
# SK-OV-3 ovarian = tested on: SK-OV-3 ovarian
# SN12C renal = tested on: SN12C renal
# SNB-19 CNS = tested on: SNB-19 CNS
# SNB-75 CNS = tested on: SNB-75 CNS
# SR leukemia = tested on: SR leukemia
# SW-620 colon = tested on: SW-620 colon
# T-47D breast = tested on: T-47D breast
# TK-10 renal = tested on: TK-10 renal
# U251 CNS = tested on: U251 CNS
# UACC-257 melanoma = tested on: UACC-257 melanoma
# UACC-62 melanoma = tested on: UACC-62 melanoma
# UO-31 renal = tested on: UO-31 renal
structure (smiles),measurement,setting,value
NC1(C(=O)OCc2ccccc2)CCCC1,TGI,786-0 renal,42.8 µM
same,TGI,A498 renal,> 100 µM
same,TGI,A549 NSCLC,> 100 µM
same,TGI,ACHN renal,34.1 µM
same,TGI,BT-549 breast,33.8 µM
same,TGI,CAKI-1 renal,47.5 µM
same,TGI,CCRF-CEM leukemia,> 100 µM
same,TGI,COLO 205 colon,76.7 µM
same,TGI,DU-145 prostate,37.5 µM
same,TGI,EKVX NSCLC,59.3 µM
same,TGI,HCC-2998 colon,76.7 µM
same,TGI,HCT-116 colon,41.8 µM
same,TGI,HCT-15 colon,60.8 µM
same,TGI,HL-60(TB) leukemia,54.5 µM
same,TGI,HOP-62 NSCLC,46.7 µM
same,TGI,HOP-92 NSCLC,38.4 µM
same,TGI,HS 578T breast,79.7 µM
same,TGI,HT29 colon,> 100 µM
same,TGI,IGROV1 ovarian,38.8 µM
same,TGI,K-562 leukemia,59.6 µM
same,TGI,KM12 colon,> 100 µM
same,TGI,LOX IMVI melanoma,37.7 µM
same,TGI,M14 melanoma,35.2 µM
same,TGI,MALME-3M melanoma,31.8 µM
same,TGI,MCF7 breast,> 100 µM
same,TGI,MDA-MB-231 breast,36.4 µM
same,TGI,MDA-MB-435,41.2 µM
same,TGI,MDA-N,49.6 µM
same,TGI,MOLT-4 leukemia,83 µM
same,TGI,NCI-H226 lung,91.7 µM
same,TGI,NCI-H23 lung,43.6 µM
same,TGI,NCI-H460 lung,> 100 µM
same,TGI,NCI-H522 lung,42.6 µM
same,TGI,NCI/ADR-RES ovarian,> 100 µM
same,TGI,OVCAR-3 ovarian,28.7 µM
same,TGI,OVCAR-4 ovarian,37.3 µM
same,TGI,OVCAR-5 ovarian,85.7 µM
same,TGI,OVCAR-8 ovarian,37.4 µM
same,TGI,PC-3 prostate,> 100 µM
same,TGI,RPMI-8226 leukemia,68.2 µM
same,TGI,RXF 393 renal,33.7 µM
same,TGI,SF-268 CNS,31.4 µM
same,TGI,SF-295 CNS,34.7 µM
same,TGI,SF-539 CNS,31.7 µM
same,TGI,SK-MEL-2 melanoma,40.2 µM
same,TGI,SK-MEL-28 melanoma,48.7 µM
same,TGI,SK-MEL-5 melanoma,37.4 µM
same,TGI,SK-OV-3 ovarian,71.1 µM
same,TGI,SN12C renal,54 µM
same,TGI,SNB-19 CNS,61.1 µM
same,TGI,SNB-75 CNS,35.1 µM
same,TGI,SR leukemia,> 100 µM
same,TGI,SW-620 colon,> 100 µM
same,TGI,T-47D breast,> 100 µM
same,TGI,TK-10 renal,> 100 µM
same,TGI,U251 CNS,40.3 µM
same,TGI,UACC-257 melanoma,41.9 µM
same,TGI,UACC-62 melanoma,37 µM
same,TGI,UO-31 renal,43.3 µM
COc1c(Cl)c(=O)oc2ccc(Cl)cc12,TGI,786-0 renal,> 100 µM
same,TGI,A498 renal,> 100 µM
same,TGI,A549 NSCLC,> 100 µM
same,TGI,ACHN renal,> 100 µM
same,TGI,BT-549 breast,> 100 µM
same,TGI,CAKI-1 renal,> 100 µM
same,TGI,CCRF-CEM leukemia,> 100 µM
same,TGI,COLO 205 colon,> 100 µM
same,TGI,DU-145 prostate,> 100 µM
same,TGI,EKVX NSCLC,> 100 µM
same,TGI,HCC-2998 colon,> 100 µM
same,TGI,HCT-116 colon,> 100 µM
same,TGI,HCT-15 colon,> 100 µM
same,TGI,HL-60(TB) leukemia,> 100 µM
same,TGI,HOP-62 NSCLC,> 100 µM
same,TGI,HOP-92 NSCLC,> 100 µM
same,TGI,HS 578T breast,> 100 µM
same,TGI,HT29 colon,> 100 µM
same,TGI,IGROV1 ovarian,> 100 µM
same,TGI,K-562 leukemia,> 100 µM
same,TGI,KM12 colon,> 100 µM
same,TGI,LOX IMVI melanoma,> 100 µM
same,TGI,M14 melanoma,> 100 µM
same,TGI,MALME-3M melanoma,> 100 µM
same,TGI,MCF7 breast,> 100 µM
same,TGI,MDA-MB-231 breast,> 100 µM
same,TGI,MDA-MB-435,> 100 µM
same,TGI,MDA-N,> 100 µM
same,TGI,MOLT-4 leukemia,> 100 µM
same,TGI,NCI-H226 lung,> 100 µM
same,TGI,NCI-H23 lung,> 100 µM
same,TGI,NCI-H460 lung,> 100 µM
same,TGI,NCI-H522 lung,> 100 µM
same,TGI,NCI/ADR-RES ovarian,> 100 µM
same,TGI,OVCAR-3 ovarian,> 100 µM
same,TGI,OVCAR-4 ovarian,> 100 µM
same,TGI,OVCAR-5 ovarian,> 100 µM
same,TGI,OVCAR-8 ovarian,> 100 µM
same,TGI,PC-3 prostate,> 100 µM
same,TGI,RPMI-8226 leukemia,> 100 µM
same,TGI,RXF 393 renal,> 100 µM
same,TGI,SF-268 CNS,> 100 µM
same,TGI,SF-295 CNS,> 100 µM
same,TGI,SF-539 CNS,> 100 µM
same,TGI,SK-MEL-2 melanoma,> 100 µM
same,TGI,SK-MEL-28 melanoma,> 100 µM
same,TGI,SK-MEL-5 melanoma,> 100 µM
same,TGI,SK-OV-3 ovarian,> 100 µM
same,TGI,SN12C renal,> 100 µM
same,TGI,SNB-19 CNS,> 100 µM
same,TGI,SNB-75 CNS,> 100 µM
same,TGI,SR leukemia,> 100 µM
same,TGI,SW-620 colon,> 100 µM
same,TGI,T-47D breast,> 100 µM
same,TGI,TK-10 renal,> 100 µM
same,TGI,U251 CNS,> 100 µM
same,TGI,UACC-257 melanoma,> 100 µM
same,TGI,UACC-62 melanoma,> 100 µM
same,TGI,UO-31 renal,> 100 µM
COC1=CC(=O)C(C2CC(=O)c3c(O)cc(O)cc3O2)=CC1=O (configuration not stated),TGI,786-0 renal,31.7 µM
same,TGI,A498 renal,> 58 µM
same,TGI,A549 NSCLC,> 72.6 µM
same,TGI,ACHN renal,29.7 µM
same,TGI,BT-549 breast,42.9 µM
same,TGI,CAKI-1 renal,33.1 µM
same,TGI,CCRF-CEM leukemia,2.42 µM
same,TGI,COLO 205 colon,32.3 µM
same,TGI,DU-145 prostate,35.3 µM
same,TGI,EKVX NSCLC,30.8 µM
same,TGI,HCC-2998 colon,32.1 µM
same,TGI,HCT-116 colon,32.9 µM
same,TGI,HCT-15 colon,55.3 µM
same,TGI,HL-60(TB) leukemia,> 21.3 µM
same,TGI,HOP-62 NSCLC,34.8 µM
same,TGI,HOP-92 NSCLC,17.6 µM
same,TGI,HS 578T breast,83 µM
same,TGI,HT29 colon,> 61.3 µM
same,TGI,IGROV1 ovarian,33.6 µM
same,TGI,K-562 leukemia,40.8 µM
same,TGI,KM12 colon,32.2 µM
same,TGI,LOX IMVI melanoma,30.9 µM
same,TGI,M14 melanoma,35.1 µM
same,TGI,MALME-3M melanoma,34.8 µM
same,TGI,MCF7 breast,42.3 µM
same,TGI,MDA-MB-231 breast,29.1 µM
same,TGI,MDA-MB-435,31.6 µM
same,TGI,MDA-N,29.7 µM
same,TGI,MOLT-4 leukemia,5.12 µM
same,TGI,NCI-H226 lung,40.4 µM
same,TGI,NCI-H23 lung,40.5 µM
same,TGI,NCI-H460 lung,51.8 µM
same,TGI,NCI-H522 lung,30.8 µM
same,TGI,NCI/ADR-RES ovarian,46.5 µM
same,TGI,OVCAR-3 ovarian,39.9 µM
same,TGI,OVCAR-4 ovarian,36.5 µM
same,TGI,OVCAR-5 ovarian,41.4 µM
same,TGI,OVCAR-8 ovarian,59.7 µM
same,TGI,PC-3 prostate,31.1 µM
same,TGI,RPMI-8226 leukemia,> 100 µM
same,TGI,RXF 393 renal,34.8 µM
same,TGI,SF-268 CNS,38.7 µM
same,TGI,SF-295 CNS,35.1 µM
same,TGI,SF-539 CNS,39.5 µM
same,TGI,SK-MEL-2 melanoma,34.4 µM
same,TGI,SK-MEL-28 melanoma,31.4 µM
same,TGI,SK-MEL-5 melanoma,31.7 µM
same,TGI,SK-OV-3 ovarian,> 93.9 µM
same,TGI,SN12C renal,37.4 µM
same,TGI,SNB-19 CNS,68.2 µM
same,TGI,SNB-75 CNS,39.7 µM
same,TGI,SR leukemia,15.6 µM
same,TGI,SW-620 colon,44.4 µM
same,TGI,T-47D breast,42.7 µM
same,TGI,TK-10 renal,31.8 µM
same,TGI,U251 CNS,37.1 µM
same,TGI,UACC-257 melanoma,34.9 µM
same,TGI,UACC-62 melanoma,31.3 µM
same,TGI,UO-31 renal,32.2 µM
